# System: HCV genotype 1b
# Test: HCV 1b replicon luciferase assay
# Assay type: cell-based
# Conditions: Hepatitis C virus, 48 h, read-out: EC50 in the 48 hour 1b replicon assay, 48 hour
# Text: A suitable 1b HCV RNA replicon assay uses the Huh7 cell line which contains an HCV 1b RNA replicon with a stable luciferase (LUC) reporter. This construct contains modifications that make the cell line more robust and provides stable LUC expression for antiviral screening. The LUC reporter is used as an indirect measure of HCV replication. The activity of the LUC reporter is directly proportional to HCV RNA levels and positive control antiviral compounds behave comparably using LUC endpoints. […]
# Fresh growth medium is prepared just before use. The container used in the procedure is a 10 cm diameter culture dish. HCV replicon reporter cell lines are used. Prepare complete medium: add FBS and appropriate additives as described in “Culture Media”, below. Pre-warm the medium in a 37° C. thermostat water bath. Remove the dish from a 37° C. CO2 incubator. Check the cell name and complete medium and passage number marked on the dish. Aspirate the medium carefully and add 1 ml PBS to rinse the cells. Remove and discard the solution and add 1 ml of 0.25% Trypsin/0.02% EDTA. Rinse the cells with the added Trypsin/EDTA to ensure all the cells have been rinsed. Remove the Trypsin/EDTA with a vacuum pump and incubate at 37° C. for 3-5 minutes. Examine the cell morphology under an inverted microscope to confirm that a single cell suspension is clearly visible. Add 3 ml of complete medium to the dish and suspend the cell by gentle pipetting. Count the cell numbers with a hematometer. Adjust cell density to 100 k/ml by adding appropriate volume of the complete medium. Add 100 μl of cell suspension to each well of a 96-well white plate; the cell density is thus 10 k per well. Mark the plate with cell name, passage number, seeding density, date and the name of the operator. Place the 96-well assay plate in 37° C. 5% CO2 incubator for 24 hours.
# Compounds are prepared or provided at 25 mM in 100% DMSO. This is the compound stock solution. The dilution procedure should be performed in a cell culture hood. Dispense the stock solution into the second column of a 96-well plate. Prepare 9-step (10 concentrations total), 5-fold serial dilutions by transferring 10 μA of the compound into the next well containing 40 μA of DMSO. Repeat for all compounds. Aspirate 2 μl of the above compound solution from each well and add into 198 μl complete media using a 12-channel pipetter to obtain the 10-fold concentration compound solution with 1% DMSO, mix well.
# Remove the 96-well assay plate from the 37° C./5% CO2 incubator, examine the cell morphology under an inverted microscope. In a cell culture hood, add 10 μl of the 10× concentration compounds solution into each well on the 96-well assay plate. All compound's dose responses are done in duplicate. The starting final concentration of the compounds is 25 μM, and DMSO final concentration 0.1%. Mark the plate with compound code(s) and concentrations. Place the 96-well assay plate into CO2 incubator for 48 hours. Add 30 μl of Stead-Glo Luciferase System (Promega) reagent to each well and mix by gentle shaking on a plate shaker for 5 minutes to allow throughout cell lysis. Measure the luminescence with Envision (Perkin Elmer) with an integration time of 2 seconds. Record and analyze the data.
# The cell culture media is DMEM complete: DMEM (Life Technologies #41965-039) supplemented with 10% FCS, 2 mM Glutamin (Life Technologies #25030-024), Penicillin (100 IU/ml)/Streptomycin (100 μg/ml) (Life Technologies #15140-114) and 1× nonessential amino acids (Life Technologies #11140-035). G418 (“Geneticin”, Life Technologies): concentrations are given as weight per volume of the original substance. Specific activity of a typical batch is ca. 700 μg/mg as stated by the manufacturer. […] Therefore each new batch of G418 should be tested individually e.g. in an electroporation experiment using different selection conditions (0.2-1 mg/ml).
row,SMILES,EC50
1,Cn1nc(C(=O)NC2CCNCC2)c2ccc(N3CCCCCC3)nc21 [EBP697],< 3 µM
2,CCC(CC)Oc1ccc2c(C(=O)NC3CCNCC3)n[nH]c2n1 [EBP726],< 3 µM
3,CCC(CC)Oc1ccc2c(COCC3CCNCC3)nn(Cc3ccc(Cl)cc3)c2n1 [EBP756],< 3 µM
4,Cc1ccc(C(=O)Nc2nn(C)c3nc(N4CCCCCC4)ccc23)s1 [EBP841],< 3 µM
5,CC1CC(NCc2nn(C)c3nc(N4CCCCCC4)ccc23)CCN1 (centres unmarked) [EBP909],< 3 µM
6,Cn1nc(C(=O)NC2CCN(CC3CCCCC3)CC2)c2ccc(N3CCCCCC3)nc21 [EBP987],< 3 µM
7,Cn1nc(C(=O)NCc2cccs2)c2cc(NC3CCCCC3)cnc21 [EBP1147],< 3 µM
8,Cn1nc(CCCN2CCCC2)c2ccc(N3CCCCCCC3)nc21 [EBP1171],< 3 µM

# Same assay, conditions: Hepatitis C virus, Huh-7, 48 h, Table 1; Huh7 HCV 1b replicon, luciferase reporter, 48 hours; read-out: 1b EC50
row,SMILES,EC50
1,O=C(Nc1n[nH]c2nc(N3CCCCCC3)ccc12)C1CCCNC1 (centres unmarked) [compound 681],8.5 µM
2,CC(C)CNc1ccc2c(C(=O)NC3CCCNC3)nn(C)c2n1 (centres unmarked) [compound 684],10 µM
3,CC(C)CN(C)c1ccc2c(C(=O)NC3CCCNC3)nn(C)c2n1 (centres unmarked) [compound 686],2.6 µM
4,CC(C)CNc1ccc2c(C(=O)NC3CCNCC3)nn(C)c2n1 [compound 688],4.9 µM
5,CC(C)CN(C)c1ccc2c(C(=O)NC3CCNCC3)nn(C)c2n1 [compound 690],1.2 µM
6,Cn1nc(C(=O)NC2CCCNC2)c2ccc(N3CCCCCC3)nc21 (centres unmarked) [compound 698],3.8 µM
7,Cn1nc(C(=O)NC2CCN(S(C)(=O)=O)CC2)c2ccc(N3CCCCCC3)nc21 [compound 699],3.8 µM
8,Cn1nc(C(=O)NC2CCCN(S(C)(=O)=O)C2)c2ccc(N3CCCCCC3)nc21 (centres unmarked) [compound 700],3.8 µM
9,O=C(NC1CCNCC1)c1nn(Cc2ccc(Cl)cc2)c2nc(N3CCCCCC3)ccc12 [compound 704],2.5 µM
10,O=C(NC1CCCNC1)c1nn(Cc2ccc(Cl)cc2)c2nc(N3CCCCCC3)ccc12 (centres unmarked) [compound 705],2.7 µM
11,O=C(N[C@H]1CCNC1)c1nn(Cc2ccc(Cl)cc2)c2nc(N3CCCCCC3)ccc12 [compound 707],3.3 µM
12,CC1CC(NC(=O)c2nn(Cc3ccc(Cl)cc3)c3nc(N4CCCCCC4)ccc23)CCN1 (centres unmarked) [compound 708],2.4 µM
13,O=C(NC1CCNCC1)c1nnc2n(Cc3ccc(Cl)cc3)c(N3CCCCCC3)ccc1-2 [compound 709],8.7 µM
14,O=C(NC1CCCNC1)c1nnc2n(Cc3ccc(Cl)cc3)c(N3CCCCCC3)ccc1-2 (centres unmarked) [compound 710],7.9 µM
15,O=C(NC1CCNC1)c1nnc2n(Cc3ccc(Cl)cc3)c(N3CCCCCC3)ccc1-2 (centres unmarked) [compound 712],8.2 µM
16,CC1CC(NC(=O)c2nnc3n(Cc4ccc(Cl)cc4)c(N4CCCCCC4)ccc2-3)CCN1 (centres unmarked) [compound 713],6.1 µM
17,CCC(CC)Oc1ccc2c(C(=O)NC3CCCNC3)n[nH]c2n1 (centres unmarked) [compound 725],7.6 µM
18,O=C(NC1CCCNC1)c1n[nH]c2nc(OC3CCCCC3)ccc12 (centres unmarked) [compound 728],8 µM
19,CC1CC(NC(=O)c2n[nH]c3nc(N4CCCCCC4)ccc23)CCN1 (centres unmarked) [compound 734],2.6 µM

row,SMILES,EC50
1,O=C(/C=C/c1cccnc1)Nc1nn(Cc2ccc(Cl)cc2)c2nc(N3CCCCCC3)ccc12 [compound 747],9 µM
2,O=C(NC1CC2CCCC(C1)N2)c1nn(Cc2ccc(Cl)cc2)c2nc(N3CCCCCC3)ccc12 (centres unmarked) [compound 751],2 µM
3,Nc1nn(Cc2ccc(Cl)cc2)c2nc(N3CCCCCC3)ccc12 [compound 759],8.6 µM
4,Clc1ccc(Cn2nc(CNC3CCNCC3)c3ccc(N4CCCCCC4)nc32)cc1 [compound 762],2.9 µM
5,Clc1ccc(Cn2nc(CN3CCCC3)c3ccc(N4CCCCCC4)nc32)cc1 [compound 763],8.7 µM
6,CN(Cc1ccccc1)c1ccc2c(C(=O)NC3CCNCC3)n[nH]c2n1 [compound 777],2 µM
7,COC[C@@H]1CCCN1c1ccc2c(C(=O)NC3CCNCC3)n[nH]c2n1 [compound 778],17 µM
8,Cn1nc(NC(=O)c2ccncc2)c2ccc(N3CCCC3)nc21 [compound 788],9.5 µM
9,Cn1nc(CN2CCCC2CO)c2ccc(N3CCCCCC3)nc21 (centres unmarked) [compound 791],8.5 µM
10,CCC(CC)Oc1ccc2c(COCCN3CCCCC3)nn(Cc3ccc(Cl)cc3)c2n1 [compound 792],4.6 µM
11,CCC(CC)Oc1ccc2c(C(=O)NC3CCCNC3)nn(Cc3ccc(Cl)cc3)c2n1 (centres unmarked) [compound 794],2.8 µM
12,CCC(CC)Oc1ccc2c(C(=O)NC3CCNCC3)nn(Cc3ccc(Cl)cc3)c2n1 [compound 795],3.2 µM
13,Cn1nc(CNC2CCCNC2)c2ccc(N3CCCCCC3)nc21 (centres unmarked) [compound 811],2.9 µM
14,Cn1nc(CN2CCNCC2)c2ccc(N3CCCCCC3)nc21 [compound 812],4.6 µM
15,O=C(CC1CCNCC1)Nc1nn(Cc2ccc(Cl)cc2)c2nc(N3CCCC3)ccc12 [compound 813],6.8 µM
16,CCC(CC)Oc1ccc2c(C(=O)NC3CCCNC3)nn(C)c2n1 (centres unmarked) [compound 815],6.6 µM
17,CCC(CC)Oc1ccc2c(C(=O)NC3CCNCC3)nn(C)c2n1 [compound 816],2.4 µM
18,Cn1nc(C(=O)NC2CCNCC2)c2ccc(OC3CCCCC3)nc21 [compound 817],3.4 µM
19,Cn1nc(C(=O)N[C@H]2CCNC2)c2ccc(N3CCCCCC3)nc21 [compound 822],4.3 µM

row,SMILES,EC50
1,Cn1nc(C(=O)N2CCNCC2)c2ccc(N3CCCCCC3)nc21 [compound 823],7.6 µM
2,Cn1nc(C(=O)Nc2cccc(S(N)(=O)=O)c2)c2ccc(N3CCCCCC3)nc21 [compound 824],3.5 µM
3,Cn1nc(C(=O)Nc2cc[nH]n2)c2ccc(N3CCCCCC3)nc21 [compound 827],3.2 µM
4,Cn1nc(C(=O)N2CCC(N)CC2)c2ccc(N3CCCCCC3)nc21 [compound 829],8.7 µM
5,Cn1nc(C(=O)NCc2ccccc2)c2ccc(N3CCCCCC3)nc21 [compound 830],7.3 µM
6,Cn1nc(NC(=O)c2cccnc2Cl)c2ccc(N3CCCCCC3)nc21 [compound 832],3.3 µM
7,Cn1nc(NC(=O)c2ccncc2Cl)c2ccc(N3CCCCCC3)nc21 [compound 833],2.9 µM
8,Cn1nc(NC(=O)C2CCCCC2)c2ccc(N3CCCCCC3)nc21 [compound 835],2.4 µM
9,Cn1nc(NC(=O)c2ccccc2C(F)(F)F)c2ccc(N3CCCCCC3)nc21 [compound 836],4.1 µM
10,Cn1nc(NC(=O)c2cccnc2)c2ccc(N3CCCCCC3)nc21 [compound 838],3.8 µM
11,Cn1nc(NC(=O)c2ccncc2)c2ccc(N3CCCCCC3)nc21 [compound 839],2.5 µM
12,Cn1nc(NC(=O)CC2CCCNC2)c2ccc(N3CCCCCC3)nc21 (centres unmarked) [compound 843],8.3 µM
13,Cn1nc(NC(=O)[C@H]2CC[C@@H](N)CC2)c2ccc(N3CCCCCC3)nc21 [compound 844],6.6 µM
14,O=C(NC1CCNCC1)c1nn(CC2CCCCC2)c2nc(N3CCCCCC3)ccc12 [compound 845],2 µM
15,O=C(NCC1CCCNC1)c1nn(Cc2ccc(Cl)cc2)c2nc(N3CCCCCC3)ccc12 (centres unmarked) [compound 850],2.5 µM
16,CC(C)Cn1nc(C(=O)NC2CCNCC2)c2ccc(N3CCCCCC3)nc21 [compound 852],2.9 µM
17,O=C(NC1CCNCC1)c1nn(Cc2cccc(Cl)c2)c2nc(N3CCCCCC3)ccc12 [compound 854],7.2 µM
18,O=C(NC1CCNCC1)c1nn(CCc2ccc(Cl)cc2)c2nc(N3CCCCCC3)ccc12 [compound 855],3.7 µM

# Same assay, conditions: Table 1; Huh7 HCV 1b replicon, luciferase reporter, 48 hours; read-out: 1b EC50
row,SMILES,EC50
1,Cn1nc(C(=O)NC2CC3CCCC(C2)N3)c2ccc(N3CCCCCC3)nc21 (centres unmarked) [compound 831],2.7 µM
